The values below come from patent publication US7795305B2, “CDDO-compounds and combination therapies thereof” (Board of Regents, The University of Texas System, priority 2000, dated 2010).

The Ki is a dissociation constant, usually derived from enzyme kinetics or from competition with a known ligand.

The test system of test [1] is wt-PPARγ-transfected D9 cells. Nature of the test: Annexin V / cell number in wt-PPARγ-transfected D9 cells. The format is cell-based. As for the experimental part:
Annexin V staining. Cells were washed in phosphate-buffered saline (PBS) and resuspended in 100 μl of binding buffer containing Annexin V (Roche Diagnostic Corporation, Indianapolis, Ind.). Cells were analyzed by flow cytometry after the addition of propidium iodide (PI). Annexin V binds to those cells that express phosphatidylserine on the outer layer of the cell membrane, and PI stains the cellular DNA of those cells with a compromised cell membrane. This allows for live cells (unstained with either fluorochrome) to be discriminated from apoptotic cells (stained only with annexin V) and necrotic cells (stained with both annexin and PI).
(§1) To characterize the correlation between PPARγ and caspase activation, caspase-3 levels in D9 cells transfected with wt-PPARγ were analyzed. Six different single cell-derived clones were treated with 3 μM CDDO or vehicle controls for 5 hrs. Caspase-3 cleavage was analyzed by Western blot. A decrease in pro-caspase-3 with appearance of the cleaved product was readily observed in all clones. The degree of cleavage was higher in PPARγ-transfected than in vector control cells that express endogenous PPARγ. […] These changes correlated with plasma membrane changes: vector control=47.0% annexin V-positive cells; wt-PPARγ-transfected cells=73.3±1.1% annexin V (+), n=6. […] PPARγ-transfected cells were also more sensitive to PPARγ-ligand 15d-PGJ2 (41.00% vs 16.0% annexin (+) cells at 3 μM).
as §1, with “(41.0%” for “(41.00%”
The sensitivity of leukemic cells that overexpress PPARγ to CDDO-induced killing was tested. Vector control (pcDNA) or wt-PPARγ-transfected D9 cells (2 different clones) were treated 0.2 μM of CDDO for 48 hrs. Cell viability was assessed by cell count after Trypan blue exclusion, and apoptosis determined by PS/annexin V/Propidium Iodide (PI) flow cytometry. Leukemic cells transfected with PPARγ expressed 2.8-3.7-fold higher amounts of protein compared with vector controls. […] Importantly, CDDO increased PPARγ expression in both, vector control and transfected cells. […]

Another test has as its system U937 cells. Nature of the test: Apoptotic sub-G1 cells. The format is cell-based, human. To be noted: 1 μM, 48 hrs. As for the experimental part:
Cell kinetic and DNA fragmentation studies. The cell cycle kinetics was determined by staining cells with acridine orange for cellular DNA and RNA content followed by flow cytometeric analysis as described. Samples were measured in a FACScan flow cytometer (Becton Dickinson, San Jose, Calif.) using the 488-nm line of a […] argon laser and filter settings for green (530 nm) (DNA) and red (585 nm) (RNA) fluorescence. Ten thousand events were stored in list mode for analysis. The percentage of cells in the “sub G1 peak” defined the proportion of apoptotic cells in the tested populations. […] Cell-cycle kinetics was analyzed using ModFit software (Verity Software House, Inc., Topsham, Me.).

The subject of the next test is 435 breast cancer cells. The test is described as follows: Breast cancer growth in nude mice. In kind it is in vivo. As to conditions: 20 and 40 mg/kg i.v. twice a week. As for the experimental part:
CDDO was given at 20 and 40 mg/kg i.v. twice a week 10 days after nude mice were injected s.c. with 2×10^6 estrogen-receptor negative, PPARγ positive 435 breast cancer cells.

For the next test, the target named is T1, PPARγ LBD (Homo sapiens, UniProt P37231).
T1 construct: bacterially expressed PPARγ LBD; made in house
T1 sequence (P37231 238-503 limits assumed): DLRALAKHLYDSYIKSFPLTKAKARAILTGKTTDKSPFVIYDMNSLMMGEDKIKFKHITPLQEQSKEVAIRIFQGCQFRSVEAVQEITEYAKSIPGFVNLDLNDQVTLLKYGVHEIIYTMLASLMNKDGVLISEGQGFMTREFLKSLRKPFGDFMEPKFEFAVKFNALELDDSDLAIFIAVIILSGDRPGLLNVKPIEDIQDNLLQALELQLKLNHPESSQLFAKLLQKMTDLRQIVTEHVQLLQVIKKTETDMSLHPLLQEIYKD
The test is described as follows: Scintillation proximity assay (SPA), competition binding. To be noted: read-out: Ki, competition with [3H]-rosiglitazone for binding to PPARγ LBD. An excerpt:
PPARγ, a member of a family of nuclear receptors, induces differentiation and growth arrest in preadipocyte cells and can mediate inflammatory processes.
(In general: Scintillation proximity formats need no separation of bound from free tracer.)

Test [2] has as its system Bcl-2 mRNA in HL-60 cells. The test is described as follows: Bcl-2 mRNA by quantitative TaqMan PCR. In kind it is cell-based, human. To be noted: 72 hours. As for the experimental part:
(§2) The effect of CDDO on the Bcl-2 mRNA expression was analyzed utilizing quantitative TaqMan PCR. In HL-60 cells, Bcl-2 mRNA decreased at 24 hrs and decreased further (>than 10-fold) at 72 hours; in NB4 cells, a small decrease of Bcl-2 mRNA (2-fold) was observed only at 72 hrs (FIG. 9).
In general terms: Quantitative PCR measures a nucleic acid by following its amplification.

For another test, the system named is Bcl-2 mRNA in NB4 cells. Nature of the test: Bcl-2 mRNA by quantitative TaqMan PCR. The format is cell-based, human. To be noted: 72 hrs. As for the experimental part: as §2
Another test concerns ERK1/2 in U937 cells. Nature of the test: ERK1/2 phosphorylation, Western blot. In kind it is cell-based, human. As to conditions: 1 μM, 3 hours. As for the experimental part:
Western blot analysis. An equal amount of protein lysate was placed on 12% SDS-PAGE for 2 hours at 100 volts, followed by transfer of the protein to a Nytran membrane (S&S, Heween, N.H.) and immunoblotting. Polyclonal rabbit antibodies to Bcl-2, Bcl-XL, and Bax were kindly provided by Dr. J. C. Reed. Antibodies against PARP was obtained from PharMingen (San Diego, Calif.), DFF-45 from Oncogene (Cambridge, Mass.), XIAP from Transduction Laboratories (Lexington, Ky.), caspase-3 from PharMingen, phospho-specific anti-pERK1/2 antibodies from Calbiochem (San Diego, Calif.). A specific antibody recognizing only the p20-processed caspase-3 band was provided by Idun Pharmaceutical, Inc. (La Jolla, Calif.).
Since PKC-α and the MAP kinases ERK1 (p44) and ERK2 (p42) have been identified as physiologic Bcl-2 kinases, studies were performed to assess their activation status. […] However, both ERK1 and ERK2 were prominently detected in the mitochondrial membranes. […] Treatment of K562 cells with 1 μM of CDDO-Me in vivo abrogated ERK kinase activity similar to specific MEK inhibitor […]. No effect on Akt activity was seen. These findings indicate that CDDO-Me induces apoptosis by inhibition of ERK1/2 and Bcl-2 phosphorylation.

Structures are written as SMILES.

Turning to `CC1(C)CCC2(C(=O)O)CCC3(C)C(C(=O)C=C4C5(C)C=C(C#N)C(=O)C(C)(C)C5CCC43C)C2C1` (stereo not drawn) [CDDO, 2-cyano-3,12-dioxoolen-1,9-dien-28-oic acid], the “annexin V (+) cells” value in test [1] (3 μM (CDDO: 5 hrs, n=6)) stood at 73.3±1.1%. In addition, the “cell number decreased by” value in test [1] (3 μM CDDO) was found to be 48.8±12.4%. The “higher sensitivity compared to vector-control cells” value in test [1] (all six single cell-derived subclones, 0.2 μM CDDO, 48 hrs) is recorded as greater than 50%. Also, in the test on U937 cells, the “apoptotic sub-G1 cells” value worked out at 69.4%. For the same compound, the “growth of breast cancer cells in vivo” value in the test on 435 breast cancer cells was “inhibits the growth of breast cancer cells in vivo”. Moreover, the Ki on PPARγ LBD came out at 12 nM. For the same compound, the results for the “decrease of Bcl-2 mRNA” value (in test [2]; in the test on Bcl-2 mRNA in NB4 cells) were greater than 10 fold and 2 fold, respectively.

`COC(=O)[C@]12CCC(C)(C)C[C@H]1[C@H]1C(=O)C=C3[C@@]4(C)C=C(C#N)C(=O)C(C)(C)[C@@H]4CC[C@@]3(C)[C@]1(C)CC2` [CDDO-Me]: in the test with ERK1/2 in U937 cells, the “activation of ERK1/2 (ERK1/2 phosphorylation)” value is recorded as “blocked the activation of ERK1/2”.
